Activity calls are given as the source filed them. No cut-off for these calls is given here.
How the values were obtained:
[1] = biological target: T1, Heat shock protein HSP 90-beta (Homo sapiens, UniProt P08238)
Description: Inhibition of FITC-GDA binding to human HSP90-beta incubated for 2 hrs by fluorescence polarization assay

[2] = biological target: T2, Heat shock protein HSP 90-alpha (Homo sapiens, UniProt P07900)
Description: Inhibition of FITC-GDA binding to human HSP90-alpha incubated for 2 hrs by fluorescence polarization assay

[3] = test system: SK-BR-3; test: Induction of heat shock response in human SK-BR-3 cells at 1 uM incubated for 18 hrs by Western blot analysis; format: cell-based; details: sk-br-3, 18 h
[4] = test system: Panel NCI-60 (60 carcinoma cell lines); test: Growth inhibition of human NCI60 cells incubated for 72 hrs by Cell Titer-Glo luminescent cell viability assay; format: functional
[5] = biological target: T1, Heat shock protein HSP 90-beta; details: HCT-116, dose 300-1000 nM, time 24.0 hrs
[6] = biological target: T1, Heat shock protein HSP 90-beta; details: HCT-116, dose 300-1000 nM, time 24.0 hrs; remark: listed apart in the source
[7] = biological target: T1, Heat shock protein HSP 90-beta; details: HCT-116, dose 300-1000 nM, time 24.0 hrs; remark: listed apart in the source
[8] = biological target: T1, Heat shock protein HSP 90-beta; details: HCT-116, dose 300-1000 nM, time 24.0 hrs; remark: listed apart in the source
[9] = biological target: T2, Heat shock protein HSP 90-alpha; details: HCT-116, dose 300-1000 nM, time 24.0 hrs
[10] = biological target: Endoplasmin (Canis lupus familiaris, UniProt P41148); test: Inhibition of FITC-GDA binding to dog GRP94 incubated for 2 hrs by fluorescence polarization assay
Chain of Endoplasmin (P41148 whole entry): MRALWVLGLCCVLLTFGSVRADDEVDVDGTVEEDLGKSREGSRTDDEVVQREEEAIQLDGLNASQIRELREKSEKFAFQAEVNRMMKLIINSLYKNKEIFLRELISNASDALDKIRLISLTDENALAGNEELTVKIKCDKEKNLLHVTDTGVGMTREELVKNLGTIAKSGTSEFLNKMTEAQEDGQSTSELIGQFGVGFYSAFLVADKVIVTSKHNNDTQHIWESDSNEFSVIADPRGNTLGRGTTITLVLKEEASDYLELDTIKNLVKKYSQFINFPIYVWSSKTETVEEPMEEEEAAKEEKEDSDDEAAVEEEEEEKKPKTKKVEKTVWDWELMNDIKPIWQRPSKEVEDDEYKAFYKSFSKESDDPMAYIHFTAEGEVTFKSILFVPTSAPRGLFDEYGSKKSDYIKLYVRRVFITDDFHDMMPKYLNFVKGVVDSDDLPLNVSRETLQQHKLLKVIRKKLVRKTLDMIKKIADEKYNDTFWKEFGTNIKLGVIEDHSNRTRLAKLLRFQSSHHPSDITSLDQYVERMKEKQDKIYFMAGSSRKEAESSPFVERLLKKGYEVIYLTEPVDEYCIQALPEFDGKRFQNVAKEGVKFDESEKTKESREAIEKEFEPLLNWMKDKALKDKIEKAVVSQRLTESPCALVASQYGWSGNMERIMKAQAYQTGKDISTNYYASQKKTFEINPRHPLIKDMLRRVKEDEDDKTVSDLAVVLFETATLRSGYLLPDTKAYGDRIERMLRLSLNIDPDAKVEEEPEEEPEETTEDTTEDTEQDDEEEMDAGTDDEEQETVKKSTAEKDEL

[11] = test system: PC-3; test: Growth inhibition of human PC-3 cells incubated for 72 hrs by Cell Titer-Glo luminescent cell viability assay; format: functional
[12] = Growth inhibition of human LNCaP-LN3 cells incubated for 72 hrs by Cell Titer-Glo luminescent cell viability assay; format: functional
[13] = test system: UMUC3; details: time 72 hrs
[14] = test system: SK-BR-3; test: Induction of heat shock response in human SK-BR-3 cells at 10 uM incubated for 18 hrs by Western blot analysis; format: cell-based; details: sk-br-3, 18 h

T1 sequence (P08238 whole entry): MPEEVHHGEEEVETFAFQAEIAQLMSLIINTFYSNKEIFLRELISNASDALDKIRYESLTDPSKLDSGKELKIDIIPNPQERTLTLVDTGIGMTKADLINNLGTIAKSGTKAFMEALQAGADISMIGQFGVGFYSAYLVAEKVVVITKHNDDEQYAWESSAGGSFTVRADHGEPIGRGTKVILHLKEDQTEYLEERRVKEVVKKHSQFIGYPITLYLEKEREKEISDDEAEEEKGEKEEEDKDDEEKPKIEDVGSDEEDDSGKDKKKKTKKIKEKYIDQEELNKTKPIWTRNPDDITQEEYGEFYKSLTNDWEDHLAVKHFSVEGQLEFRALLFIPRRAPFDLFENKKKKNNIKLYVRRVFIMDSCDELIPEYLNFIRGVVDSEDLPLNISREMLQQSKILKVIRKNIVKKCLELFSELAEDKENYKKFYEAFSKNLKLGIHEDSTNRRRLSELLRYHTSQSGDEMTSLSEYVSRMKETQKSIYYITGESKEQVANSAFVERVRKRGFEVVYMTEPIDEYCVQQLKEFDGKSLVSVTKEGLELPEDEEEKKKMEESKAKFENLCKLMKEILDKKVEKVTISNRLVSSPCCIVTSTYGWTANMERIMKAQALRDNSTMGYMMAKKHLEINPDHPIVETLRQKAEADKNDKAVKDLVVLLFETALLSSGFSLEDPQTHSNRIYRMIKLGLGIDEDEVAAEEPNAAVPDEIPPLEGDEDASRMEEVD

Structure (SMILES)	IC50 [1] [nM]	IC50 [2] [nM]	further results
CCc1cc2cc(-n3nc(C)c4c3CC(C)(C)CC4=O)cc(N[C@H]3CC[C@H](O)CC3)c2c(=O)[nH]1	68	180	–
COC1=C2C[C@@H](C)C[C@H](OC)[C@H](O)[C@@H](C)/C=C(\C)[C@H](OC(N)=O)[C@@H](OC)/C=C\C=C(/C)C(=O)NC(=CC1=O)C2=O [GELDANAMYCIN]	–	–	Activity [3]: Toxic
CCCCc1cc2cc(-n3nc(C)c4c3CC(C)(C)CC4=O)cc(N[C@H]3CC[C@H](O)CC3)c2c(=O)[nH]1	156	> 50000	–
CCCC1Cc2cc(-n3nc(C)c4c3CC(C)(C)CC4=O)cc(N[C@H]3CC[C@H](O)CC3)c2C(=O)N1 (stereo partly drawn)	33	1600	GI50 [4]: < 100 nM; inhibition [5]: Active; inhibition [6]: Active; inhibition [7]: Active; inhibition [8]: Active; inhibition [9]: inactive
CCCc1cc2cc(-n3nc(C)c4c3CC(C)(C)CC4=O)cc(N3CCNCC3)c2c(=O)[nH]1	4470	> 50000	–
Cc1nn(-c2cc(N[C@H]3CC[C@H](O)CC3)c3c(=O)[nH]c(CC(C)C)cc3c2)c2c1C(=O)CC(C)(C)C2	264	> 50000	–
Cc1nn(-c2cc(N[C@H]3CC[C@H](O)CC3)c3c(=O)[nH]c(C4CC4)cc3c2)c2c1C(=O)CC(C)(C)C2	946	1880	–
Cc1nn(-c2cc(N[C@H]3CC[C@H](O)CC3)c3c(=O)[nH]c(CO)cc3c2)c2c1C(=O)CC(C)(C)C2	233	824	–
CC(C)c1cc(C(=O)N2Cc3ccccc3C2)c(O)c2cnoc12	–	–	IC50 [10]: 8480 nM
COCc1cc2cc(-n3nc(C)c4c3CC(C)(C)CC4=O)cc(N[C@H]3CC[C@H](O)CC3)c2c(=O)[nH]1	159	306	–
Cc1nn(-c2cc(N[C@H]3CC[C@H](O)CC3)c3c(=O)[nH]c(C(C)C)cc3c2)c2c1C(=O)CC(C)(C)C2	51	173	–
CCCc1cc2cc(-n3nc(C)c4c3CC(C)(C)CC4=O)cc(N(C)CCN(CC)CC)c2c(=O)[nH]1	4460	> 50000	–
CCCc1cc2cc(-n3nc(C)c4c3CC(C)(C)CC4=O)cc(N3CCN(C(=O)OC(C)(C)C)CC3)c2c(=O)[nH]1	463	> 50000	–
CCCc1cc2cc(-n3nc(C)c4c3CC(C)(C)CC4=O)cc(N[C@H]3CC[C@H](O)CC3)c2c(=O)[nH]1	–	–	GI50 [4]: < 100 nM; GI50 [11]: 1560 nM; GI50 [12]: 1070 nM; GI50 [13]: 450 nM
Cc1cn(-c2cc3c(c(C4CCCC4)c2)C(=O)NCC3)c2c1C(=O)CC(C)(C)C2	–	–	IC50 [10]: > 10000 nM
CCCC1Cc2cc(-n3nc(C)c4c3CC(C)(C)CC4=O)cc(N3CCC(O)CC3)c2C(=O)N1 (stereo not drawn)	> 5000	> 10000	–
CCCc1cc2cc(-n3nc(C)c4c3CC(C)(C)CC4=O)cc(N3CCC(O)CC3)c2c(=O)[nH]1	–	–	Activity [14]: Non-Toxic
CCCc1cc2cc(-n3nc(C)c4c3CC(C)(C)CC4=O)cc(NC3CCN(C)CC3)c2c(=O)[nH]1	513	17100	–
CCCc1cc2cc(-n3nc(C)c4c3CC(C)(C)CC4=O)cc(N3CCN(C)CC3)c2c(=O)[nH]1	426	8520	–
CCCc1cc2cc(-n3nc(C)c4c3CC(C)(C)CC4=O)cc(N3CCOCC3)c2c(=O)[nH]1	121	> 50000	–
Cc1nn(-c2cc(N[C@H]3CC[C@H](O)CC3)c3c(=O)[nH]c(C(C)(C)C)cc3c2)c2c1C(=O)CC(C)(C)C2	> 50000	> 50000	–
Cc1cc2cc(-n3nc(C)c4c3CC(C)(C)CC4=O)cc(N[C@H]3CC[C@H](O)CC3)c2c(=O)[nH]1	101	294	–

From ChEMBL document CHEMBL4706657, “The Development of Hsp90β-Selective Inhibitors to Overcome Detriments Associated with pan-Hsp90 Inhibition” (J Med Chem, 2021)
